Measured values as given in paper PMC4504433 (ACS Chemical Biology, 2014).

Tested on: H3K79me2 in A431 cells
Assay: High content imaging assay of H3K79me2
Conditions: 4 days

SMILES: Nc1ncnc2c1ncn2[C@@H]1O[C@H](CSCC[C@H](N)C(=O)O)[C@@H](O)[C@H]1O [SAH]
- reduction of H3K79 methylation, result in words: ineffective
